{"source": "the SangsterLogP compilation", "experiment": "method code SF-AS, from Rouot, B.; Leclerc, G.; Wermuth, C.; Miesch, F.; Schwartz, J. (1977). Structure-activity relations and problems related to the mechanism of action of clonidine.Journal de Pharmacologie, 8(1)95-106."}
{"smiles": "COc1ccc(OC)c(NC2=NCCN2)c1", "values": [{"measurement": "logP", "value": 0.97}]}
{"smiles": "Fc1cccc(F)c1N=C1NCCN1", "values": [{"measurement": "logP", "value": 1.06}]}
{"smiles": "Cc1ccc(NC2=NCCN2)c(Cl)c1", "values": [{"measurement": "logP", "value": 1.87}]}
{"smiles": "COc1cc(OC)c(NC2=NCCN2)cc1Cl", "values": [{"measurement": "logP", "value": 1.38}]}
{"smiles": "Cc1cc(Cl)ccc1NC1=NCCN1", "values": [{"measurement": "logP", "value": 1.77}]}
{"smiles": "Cc1cccc(C)c1NC1=NCCN1", "values": [{"measurement": "logP", "value": 1.45}]}
{"smiles": "COc1cc(C)ccc1NC1=NCCN1", "values": [{"measurement": "logP", "value": 1.64}]}
{"smiles": "Clc1ccc(NC2=NCCN2)c(Cl)c1", "values": [{"measurement": "logP", "value": 1.96}]}
{"smiles": "c1ccc(NC2=NCCN2)cc1", "values": [{"measurement": "logP", "value": 1.01}]}
{"smiles": "Oc1cc(Cl)c(NC2=NCCN2)c(Cl)c1", "values": [{"measurement": "logP", "value": 1.52}]}
{"smiles": "Cc1cccc(Cl)c1NC1=NCCN1", "values": [{"measurement": "logP", "value": 1.41}]}
{"smiles": "CC(C)c1cccc(C(C)C)c1NC1=NCCN1", "values": [{"measurement": "logP", "value": 3.04}]}
{"smiles": "FC(F)(F)c1ccccc1NC1=NCCN1", "values": [{"measurement": "logP", "value": 1.42}]}
{"smiles": "Brc1cccc(Br)c1NC1=NCCN1", "values": [{"measurement": "logP", "value": 1.73}]}
{"smiles": "Brc1ccc(NC2=NCCN2)cc1", "values": [{"measurement": "logP", "value": 1.75}]}
{"smiles": "Cc1ccc(Cl)cc1NC1=NCCN1", "values": [{"measurement": "logP", "value": 1.8}]}
